From article PMC8562569 (Nature cancer, 2021)

Biological target: PIKfyve (Homo sapiens, UniProt Q9Y2I7)
Assay: cellular thermal shift assay in VCaP cells, […], […] h
Format: cell-based

Chain of PIKfyve (Q9Y2I7 2-2098): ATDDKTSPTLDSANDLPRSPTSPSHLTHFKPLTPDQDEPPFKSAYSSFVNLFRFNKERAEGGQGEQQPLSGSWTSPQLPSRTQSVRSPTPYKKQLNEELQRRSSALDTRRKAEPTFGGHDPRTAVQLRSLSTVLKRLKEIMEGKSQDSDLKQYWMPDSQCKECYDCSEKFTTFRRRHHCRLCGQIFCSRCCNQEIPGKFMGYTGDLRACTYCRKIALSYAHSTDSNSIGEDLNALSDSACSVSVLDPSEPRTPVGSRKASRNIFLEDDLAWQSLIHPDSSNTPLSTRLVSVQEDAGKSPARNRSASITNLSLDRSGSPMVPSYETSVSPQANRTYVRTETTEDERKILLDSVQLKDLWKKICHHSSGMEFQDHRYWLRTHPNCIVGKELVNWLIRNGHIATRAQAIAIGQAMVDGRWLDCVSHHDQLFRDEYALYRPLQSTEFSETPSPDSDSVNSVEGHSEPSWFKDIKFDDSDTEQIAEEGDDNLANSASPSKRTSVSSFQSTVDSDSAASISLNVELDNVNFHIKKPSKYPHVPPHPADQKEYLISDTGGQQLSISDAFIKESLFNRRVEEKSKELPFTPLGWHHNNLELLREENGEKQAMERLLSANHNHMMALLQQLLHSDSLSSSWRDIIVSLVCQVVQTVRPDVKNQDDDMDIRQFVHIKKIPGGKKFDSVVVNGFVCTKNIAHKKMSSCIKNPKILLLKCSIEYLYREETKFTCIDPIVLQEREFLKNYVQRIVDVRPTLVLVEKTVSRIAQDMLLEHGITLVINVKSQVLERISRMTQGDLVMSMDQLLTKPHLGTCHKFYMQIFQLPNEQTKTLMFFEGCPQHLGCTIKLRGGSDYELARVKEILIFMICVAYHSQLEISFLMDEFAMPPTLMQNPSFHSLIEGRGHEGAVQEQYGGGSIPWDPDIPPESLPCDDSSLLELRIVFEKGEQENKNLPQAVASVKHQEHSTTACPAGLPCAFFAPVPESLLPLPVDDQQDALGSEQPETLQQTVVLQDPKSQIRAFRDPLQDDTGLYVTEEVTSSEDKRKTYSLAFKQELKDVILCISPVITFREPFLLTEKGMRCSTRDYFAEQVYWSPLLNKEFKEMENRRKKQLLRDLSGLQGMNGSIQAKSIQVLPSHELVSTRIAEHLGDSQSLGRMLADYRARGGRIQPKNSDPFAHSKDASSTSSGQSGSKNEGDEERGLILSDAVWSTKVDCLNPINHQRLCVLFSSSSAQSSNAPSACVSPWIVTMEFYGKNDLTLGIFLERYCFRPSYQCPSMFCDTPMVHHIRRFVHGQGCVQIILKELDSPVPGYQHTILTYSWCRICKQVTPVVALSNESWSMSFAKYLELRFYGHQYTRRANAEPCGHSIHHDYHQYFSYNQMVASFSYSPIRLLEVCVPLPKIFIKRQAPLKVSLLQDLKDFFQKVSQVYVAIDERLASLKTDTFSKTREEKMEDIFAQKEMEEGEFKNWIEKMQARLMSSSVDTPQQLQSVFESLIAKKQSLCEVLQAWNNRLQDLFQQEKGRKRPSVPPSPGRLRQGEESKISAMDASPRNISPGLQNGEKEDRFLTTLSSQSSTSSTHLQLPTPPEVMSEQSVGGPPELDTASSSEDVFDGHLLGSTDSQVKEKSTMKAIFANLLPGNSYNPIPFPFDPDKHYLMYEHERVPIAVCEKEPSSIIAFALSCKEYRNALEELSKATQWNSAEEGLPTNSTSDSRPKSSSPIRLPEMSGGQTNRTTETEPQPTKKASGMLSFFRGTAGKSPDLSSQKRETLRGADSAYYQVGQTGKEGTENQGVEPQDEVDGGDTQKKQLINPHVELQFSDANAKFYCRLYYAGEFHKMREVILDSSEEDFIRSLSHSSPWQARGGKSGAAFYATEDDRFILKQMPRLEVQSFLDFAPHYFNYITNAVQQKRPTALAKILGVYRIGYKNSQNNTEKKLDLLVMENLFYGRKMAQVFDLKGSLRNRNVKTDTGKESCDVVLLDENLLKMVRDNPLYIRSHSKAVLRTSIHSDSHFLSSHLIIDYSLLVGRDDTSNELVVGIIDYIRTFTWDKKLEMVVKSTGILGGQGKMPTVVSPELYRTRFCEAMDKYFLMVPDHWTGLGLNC

Cc1cccc(/C=N/Nc2cc(N3CCOCC3)nc(OCCc3ccccn3)n2)c1 [apilimod]
cellular thermal shift assay in VCaP cells, 1 μM, 2 h: cellular thermal shift assay in VCaP cells, with the known PIKfyve inhibitor apilimod serving as a positive control
